T/C data for 22 compounds are collected here from PubChem BioAssay AID330 (DTP/NCI, 2004).

Where “and” joins values, the source holds several entries; their conditions need not be identical. Equal values may be shown once. Toxic doses and inconclusive results are not listed. Square brackets hold non-standard residues; d marks the D form. Peptide text beside a SMILES is read from it. * marks the point of attachment. ξ: configuration not given here. Cbz = O=C(OCc1ccccc1)*; ξI = CCC(C)C(N)C(=O)O

The experiment has as its system P388 leukemia ip, CD2F1 mice, survival T/C. As to the kind of experiment: NCI In Vivo Anticancer Drug Screen. Data for tumor model P388 Leukemia (intraperitoneal) in CD2F1 (CDF1) mice. Particulars: endpoint: median survival time, higher = longer survival. In outline: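 Mice carrying the transplanted tumor received test compound or vehicle. Survival was recorded in each group, and the value is the treated-group measurement divided by that of the vehicle-treated control group.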

Setting [1] is: dose: 12.5 mg/kg/injection, schedule: Q01DX005 (ip), vehicle: Klucel (hydroxypropylcellulose) (HPC).
[2] abbreviates: dose: 25.0 mg/kg/injection, schedule: Q01DX005 (ip), vehicle: Klucel (hydroxypropylcellulose) (HPC).
Where [3] appears, read: dose: 50.0 mg/kg/injection, schedule: Q01DX005 (ip), vehicle: Klucel (hydroxypropylcellulose) (HPC).
Setting [4] is: dose: 100.0 mg/kg/injection, schedule: Q01DX005 (ip), vehicle: Klucel (hydroxypropylcellulose) (HPC).
Setting [5] is: dose: 60.0 mg/kg/injection, schedule: Q01DX005 (ip), vehicle: saline with Tween-80.
Setting [6] is: dose: 120.0 mg/kg/injection, schedule: Q01DX005 (ip), vehicle: saline with Tween-80.
The mark [7] stands for this setting: dose: 240.0 mg/kg/injection, schedule: Q01DX005 (ip), vehicle: saline with Tween-80.
Setting [8] is: dose: 50.0 mg/kg/injection, schedule: Q01DX005 (ip), vehicle: saline with Tween-80.
Setting [9] is: dose: 100.0 mg/kg/injection, schedule: Q01DX005 (ip), vehicle: saline with Tween-80.
Where [10] appears, read: dose: 200.0 mg/kg/injection, schedule: Q01DX005 (ip), vehicle: saline with Tween-80.
The mark [11] stands for this setting: dose: 100.0 mg/kg/injection, schedule: Q04DX003 (ip), vehicle: saline with Tween-80.
The mark [12] stands for this setting: dose: 200.0 mg/kg/injection, schedule: Q04DX003 (ip), vehicle: saline with Tween-80.
Where [13] appears, read: dose: 100.0 mg/kg/injection, schedule: Q04DX002 (ip), vehicle: saline with Tween-80.
[14] abbreviates: dose: 200.0 mg/kg/injection, schedule: Q04DX002 (ip), vehicle: saline with Tween-80.
Where [15] appears, read: dose: 400.0 mg/kg/injection, schedule: Q04DX002 (ip), vehicle: saline with Tween-80.

With `C/C(=N\Nc1cc(C)nc2cc3c(cc12)OCO3)c1cn(C)n(-c2ccccc2)c1=O`, the T/C (dose: 3.12 mg/kg/injection, schedule: Q01DX005 (ip), vehicle: Klucel (hydroxypropylcellulose) (HPC)) is 97 % of control; the T/C (dose: 6.25 mg/kg/injection, schedule: Q01DX005 (ip), vehicle: Klucel (hydroxypropylcellulose) (HPC)) was 97 % of control; the T/C under setting [1] was 103 % of control and 96 % of control; the T/C under setting [2] is 100 % of control; the T/C under setting [3] is 98 % of control and 110 % of control; the T/C under setting [4] was 109 % of control.

With `Cc1nc2ccccc2c(=O)n1/N=C1/C(=O)Nc2ccc(Br)cc21`, the T/C runs as follows: under setting [1], 96 % of control; under setting [2], 96 % of control; under setting [3], 88 % of control and 90 % of control; under setting [4], 91 % of control; (dose: 200.0 mg/kg/injection, schedule: Q01DX005 (ip), vehicle: Klucel (hydroxypropylcellulose) (HPC)) 104 % of control.

With `N#CC(C(=O)CCCC(=O)Nc1ccc(Cl)cc1)c1ccccc1Cl` (stereo not given), the T/C is, setting by setting: under setting [5], 113 % of control; under setting [6], 113 % of control; under setting [7], 106 % of control.

On to `CN(C)c1ccc(/C=N/NC(=O)CNC(=O)n2ccnc2)cc1`, for which the T/C is 99 % of control under setting [8], 94 % of control under setting [9] and 94 % of control under setting [10].

With `Cc1ccc(S(=O)(=O)Nc2ccc3ncccc3c2)cc1`, the T/C runs as follows: under setting [11], 99 % of control; under setting [12], 98 % of control.

Consider `COC(=O)C1(C)C(=O)C=CC2(C)C1CC(OC(C)=O)C1(C)C2C(=O)C(OC(C)=O)C2(C)C(c3ccoc3)CC3OC321` (stereo not given), for which the T/C runs as follows: (dose: 0.75 mg/kg/injection, schedule: Q01DX005 (ip), vehicle: Klucel (hydroxypropylcellulose) (HPC)) 99 % of control; (dose: 1.5 mg/kg/injection, schedule: Q01DX005 (ip), vehicle: Klucel (hydroxypropylcellulose) (HPC)) 101 % of control; (dose: 3.0 mg/kg/injection, schedule: Q01DX005 (ip), vehicle: Klucel (hydroxypropylcellulose) (HPC)) 97 % of control; (dose: 6.0 mg/kg/injection, schedule: Q01DX005 (ip), vehicle: Klucel (hydroxypropylcellulose) (HPC)) 97 % of control; (dose: 12.0 mg/kg/injection, schedule: Q01DX005 (ip), vehicle: Klucel (hydroxypropylcellulose) (HPC)) 98 % of control.

For `CC1CN1P(=S)(N1CC1C)N1CC1C` (stereo not given), the T/C is 110 % of control (dose: 2.5 mg/kg/injection, schedule: Q01DX010 (ip), vehicle: saline); 95 % of control (dose: 5.0 mg/kg/injection, schedule: Q01DX010 (ip), vehicle: saline); 115 % of control (dose: 10.0 mg/kg/injection, schedule: Q01DX010 (ip), vehicle: saline).

`CCOc1ccc(/C=N/Nc2ccc([N+](=O)[O-])cc2)cc1OC`: the T/C was 95 % of control under setting [11]; 90 % of control under setting [12]; 90 % of control (dose: 400.0 mg/kg/injection, schedule: Q04DX003 (ip), vehicle: saline with Tween-80).

With `COc1onc(C)c1CC(=O)O`, the T/C (dose: 18.75 mg/kg/injection, schedule: Q01DX005 (ip), vehicle: saline with Tween-80) was 97 % of control; the T/C (dose: 37.5 mg/kg/injection, schedule: Q01DX005 (ip), vehicle: saline with Tween-80) was 101 % of control; the T/C (dose: 75.0 mg/kg/injection, schedule: Q01DX005 (ip), vehicle: saline with Tween-80) was 95 % of control; the T/C (dose: 150.0 mg/kg/injection, schedule: Q01DX005 (ip), vehicle: saline with Tween-80) was 99 % of control.

For the compound `CCOC(=O)C(CC(C)C)NC(=O)c1cnc2ccccc2c1` (stereo not given), the T/C is, setting by setting: under setting [5], 104 % of control; under setting [6], 103 % of control; under setting [7], 99 % of control.

In the case of `Cc1ccccc1-n1c(-c2ccccc2)cs/c1=N\N=C1/CSC(=O)N1Cc1ccccc1`, the T/C (dose: 100.0 mg/kg/injection, schedule: Q01DX001 (ip), vehicle: Klucel (hydroxypropylcellulose) (HPC)) is 107 % of control; the T/C (dose: 200.0 mg/kg/injection, schedule: Q01DX001 (ip), vehicle: Klucel (hydroxypropylcellulose) (HPC)) was 104 % of control; the T/C (dose: 400.0 mg/kg/injection, schedule: Q01DX001 (ip), vehicle: Klucel (hydroxypropylcellulose) (HPC)) was 89 % of control.

Regarding `O=C1CCSC(=O)N1c1ccc(F)cc1`, the T/C under setting [13] is 100 % of control, the T/C under setting [14] was 105 % of control and the T/C under setting [15] was 99 % of control.

Regarding `CC1(C)S/C(=C\c2ccccc2)c2nc3ccccc3c(=O)n21`, the T/C under setting [5] was 97 % of control, the T/C under setting [6] was 91 % of control and the T/C under setting [7] is 89 % of control.

Regarding `Cc1ncc(-c2ccccc2)c(N)n1`, the T/C is, setting by setting: (dose: 50.0 mg/kg/injection, schedule: Q01DX009 (ip), vehicle: saline) 91 % of control; (dose: 100.0 mg/kg/injection, schedule: Q01DX009 (ip), vehicle: saline) 92 % of control; (dose: 200.0 mg/kg/injection, schedule: Q01DX009 (ip), vehicle: saline) 102 % of control.

Regarding `c1ccc2c(c1)CC1ON3CCc4ccccc4C3C21` (stereo not given), the T/C was 97 % of control (dose: 50.0 mg/kg/injection, schedule: Q01DX009 (ip), vehicle: saline with Tween-80); 94 % of control (dose: 100.0 mg/kg/injection, schedule: Q01DX009 (ip), vehicle: saline with Tween-80); 92 % of control (dose: 200.0 mg/kg/injection, schedule: Q01DX009 (ip), vehicle: saline with Tween-80).

Take `O=C1c2cc3c(cc2C(=O)c2[nH]c(=O)ccc21)CCCC3`: the T/C under setting [8] was 100 % of control, the T/C under setting [9] is 88 % of control and the T/C under setting [10] is 101 % of control.

In the case of `CCC1=C[C@H]2CN(CCc3c([nH]c4ccccc34)[C@@](C(=O)OC)(c3cc4c(cc3OC)N(C)[C@H]3[C@@](O)(C(=O)NN)[C@H](O)[C@]5(CC)C=CCN6CC[C@]43[C@@H]65)C2)C1`, the T/C (dose: 0.5 mg/kg/injection, schedule: Q01DX001 (ip), vehicle: water) was 174 % of control; the T/C (dose: 1.0 mg/kg/injection, schedule: Q01DX001 (ip), vehicle: water) was 164 % of control and 175 % of control; the T/C (dose: 2.0 mg/kg/injection, schedule: Q01DX001 (ip), vehicle: water) is 183 % of control and 193 % of control.

With `CCOC(=O)c1[nH]ncc1[N+](=O)[O-]`, the T/C reads like this: (dose: 100.0 mg/kg/injection, schedule: Q01DX001 (ip), vehicle: saline with Tween-80) 103 % of control; (dose: 200.0 mg/kg/injection, schedule: Q01DX001 (ip), vehicle: saline with Tween-80) 102 % of control; (dose: 400.0 mg/kg/injection, schedule: Q01DX001 (ip), vehicle: saline with Tween-80) 102 % of control.

For `NC(=O)N/N=C1\CSCc2ccccc21`, the T/C reads like this: (dose: 25.0 mg/kg/injection, schedule: Q01DX009 (ip), vehicle: other) 93 % of control; (dose: 50.0 mg/kg/injection, schedule: Q01DX009 (ip), vehicle: other) 92 % of control; (dose: 100.0 mg/kg/injection, schedule: Q01DX009 (ip), vehicle: other) 93 % of control; (dose: 200.0 mg/kg/injection, schedule: Q01DX009 (ip), vehicle: other) 99 % of control; (dose: 400.0 mg/kg/injection, schedule: Q01DX009 (ip), vehicle: other) 117 % of control.

Turning to `CCC(C)C(NC(=O)CNC(=O)CNC(=O)OCc1ccccc1)C(=O)O` (stereo not drawn) (Cbz-Gly-Gly-[ξI]-OH), the T/C runs as follows: under setting [8], 103 % of control; under setting [9], 100 % of control; under setting [10], 102 % of control.

Turning to `c1ccc(C2(N3CCOCC3)CSC2)cc1`, the T/C is, setting by setting: under setting [13], 95 % of control; under setting [14], 98 % of control; under setting [15], 98 % of control.

Take `Cc1ccccc1N`: the T/C reads like this: (dose: 50.0 mg/kg/injection, schedule: Q01DX009 (ip), vehicle: saline sonified) 100 % of control; (dose: 100.0 mg/kg/injection, schedule: Q01DX009 (ip), vehicle: saline sonified) 100 % of control; (dose: 200.0 mg/kg/injection, schedule: Q01DX009 (ip), vehicle: saline sonified) 104 % of control.
